This test addresses PD-L1 His protein / PD-1 Fc protein (Homo sapiens, UniProt Q9NZQ7). The experiment in a line: HTRF Assay (PD-1/PD-L1 interaction). The class given is binding. The following applies: PD-L1 His 6 nM, PD-1 Fc 6 nM. The protocol: PD-L1 His protein was prepared and added at the final concentration of 6 nM in the White opaque 384 well plate (Corning cat #3824BC). PD-L1 small molecule inhibitors were diluted by 3-fold starting from 20 μM and a final concentration of 0.001 μM and added to the well. PD-1 Fc protein was added at the final concentration of 6 nM. PD-L1 His protein, PD-L1 small molecule inhibitors, and PD1 Fc proteins were added to the well in this order, with each 5 μl volume, and were incubated for 15 minutes at room temperature. PAb anti-Human IgG-XL665 (Cisbio, cat #61HFCXLA) and Mab anti-6HIS Tb cryptate Gold (Cisbio, cat #61HI2TLA) were mixed at 6.7 nM and 0.35 nM respectively, and total 5 μl volume of mixture was added to the well and incubated at room temperature for 1 hour. The plate was read using PerkinElmer Envision plate reader and data was analyzed by Prism 6 software.
(In general: In TR-FRET formats the signal depends on donor and acceptor labels being close together.)

Chain of PD-L1 His protein / PD-1 Fc protein (Q9NZQ7 19-238 limits assumed): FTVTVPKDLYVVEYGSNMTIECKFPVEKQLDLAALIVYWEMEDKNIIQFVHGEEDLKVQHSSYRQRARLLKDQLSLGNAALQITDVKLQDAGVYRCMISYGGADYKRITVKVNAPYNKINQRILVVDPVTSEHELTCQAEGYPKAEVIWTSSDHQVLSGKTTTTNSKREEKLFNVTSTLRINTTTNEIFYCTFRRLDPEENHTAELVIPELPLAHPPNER

In the case of `Cc1c(COc2cc(OCc3cncc(C#N)c3)c(CNCCO)cc2Cl)cccc1-c1cccc(-c2ccn3c(=O)c(CNCCO)ccc3c2)c1C` [Example 9, 5-((4-Chloro-2-(((2-hydroxyethyl)amino)methyl)-5-((3′-(3-(((2-hydroxyethyl)amino)methyl)-4-oxo-4H-quinolizin-8-yl)-2,2′-dimethyl-[1,1′-biphenyl]-3-yl)methoxy)phenoxy)methyl)nicotinonitrile], the midpoint of inhibition, the IC50, lay at 1.1 nM.

Consider `Cc1c(COc2cc(OCc3cncc(C#N)c3)c(CN3CCCC[C@H]3C(=O)O)cc2Cl)cccc1-c1cccc(-c2ccn3c(=O)c(CN4CCCC[C@H]4C(=O)O)cnc3c2)c1C` [Example 11, (S)-1-((8-(3′-((4-(((S)-2-Carboxypiperidin-1-yl)methyl)-2-chloro-5-((5-cyanopyridin-3-yl)methoxy)phenoxy)methyl)-2,2′-dimethyl-[1,1′-biphenyl]-3-yl)-4-oxo-4H-pyrido[1,2-a]pyrimidin-3-yl)methyl)piperidine-2-carboxylic acid], for which it took 0.6 nM to reach half-maximal inhibition (IC50).

With `Cc1c(COc2cc(OCc3cncc(C#N)c3)c(CNC[C@@H]3CCC(=O)N3)cc2Cl)cccc1-c1cccc(-c2ccn3c(=O)c(CNC[C@@H]4CCC(=O)N4)cnc3c2)c1C` [Example 12, 5-((4-Chloro-5-((2,2′-dimethyl-3′-(4-oxo-3-(((((S)-5-oxopyrrolidin-2-yl)methyl)amino)methyl)-4H-pyrido[1,2-a]pyrimidin-8-yl)-[1,1′-biphenyl]-3-yl)methoxy)-2-(((((S)-5-oxopyrrolidin-2-yl)methyl)amino)methyl)phenoxy)methyl)nicotinonitrile], the IC50 (usually the midpoint of a concentration-inhibition curve) was 0.3 nM.

Molecule `Cc1c(COc2cc(OCc3cncc(C#N)c3)c(CNC[C@H]3CCC(=O)N3)cc2Cl)cccc1-c1cccc(-c2ccn3c(=O)c(CNC[C@H]4CCC(=O)N4)cnc3c2)c1C` [Example 13, 5-((4-Chloro-5-((2,2′-dimethyl-3′-(4-oxo-3-(((((R)-5-oxopyrrolidin-2-yl)methyl)amino)methyl)-4H-pyrido[1,2-a]pyrimidin-8-yl)-[1,1′-biphenyl]-3-yl)methoxy)-2-(((((R)-5-oxopyrrolidin-2-yl)methyl)amino)methyl)phenoxy)methyl)nicotinonitrile] yielded an IC50 of 0.8 nM.

Molecule `Cc1c(-c2ccn3c(=O)c(CNCCO)cnc3c2)cccc1-c1cccc(COc2cc(OCc3cncc(C#N)c3)c(CNCCO)cc2Cl)c1Cl` [Example 14, 5-((4-Chloro-5-((2-chloro-3′-(3-(((2-hydroxyethyl)amino)methyl)-4-oxo-4H-pyrido[1,2-a]pyrimidin-8-yl)-2′-methyl-[1,1′-biphenyl]-3-yl)methoxy)-2-(((2-hydroxyethyl)amino)methyl)phenoxy)methyl)nicotinonitrile] yielded an IC50 of 0.4 nM.

Molecule `Cc1c(-c2ccn3c(=O)c(CNCCO)cnc3c2)cccc1-c1cccc(-c2ccn3c(=O)c(CNCCO)cnc3c2)c1C` [Example 15, 8,8′-(2,2′-Dimethyl-[1,1′-biphenyl]-3,3′-diyl)bis(3-(((2-hydroxyethyl)amino)methyl)-4H-pyrido[1,2-a]pyrimidin-4-one)] returned an IC50 of 60 nM. This IC50 lies about 150-fold higher than the previous one.

Regarding `Cc1c(-c2ccn3c(=O)c(CNCCO)cnc3c2)cccc1-c1cccc(COc2cc(OCc3cncc(C#N)c3)c(CNCCO)cc2Cl)c1C#N` [Example 16, 5-((4-Chloro-5-((2-cyano-3′-(3-(((2-hydroxyethyl)amino)methyl)-4-oxo-4H-pyrido[1,2-a]pyrimidin-8-yl)-2′-methyl-[1,1′-biphenyl]-3-yl)methoxy)-2-(((2-hydroxyethyl)amino)methyl)phenoxy)methyl)nicotinonitrile], 0.7 nM corresponded to half-maximal inhibition (IC50). Against the preceding molecule, the IC50 is about 86-fold lower.

`Cc1c(COc2cc(OCc3cncc(C#N)c3)c(CNCCO)cc2Cl)cccc1-c1cccc(-c2cnc3cc(CNCCO)ccn3c2=O)c1C` [Example 17, 5-((4-Chloro-2-(((2-hydroxyethyl)amino)methyl)-5-((3′-(8-(((2-hydroxyethyl)amino)methyl)-4-oxo-4H-pyrido[1,2-a]pyrimidin-3-yl)-2,2′-dimethyl-[1,1′-biphenyl]-3-yl)methoxy)phenoxy)methyl)nicotinonitrile]: the IC50 was 2 nM.

As to `Cc1c(COc2cc(OCc3cncc(C#N)c3)c(CNC[C@@H]3CCC(=O)N3)cc2Cl)cccc1-c1cccc(-c2ccc3c(c2)C(=O)N(C)CC(=O)N3CCNC[C@@H]2CCC(=O)N2)c1C` [Example 20, 5-((4-Chloro-5-((2,2′-dimethyl-3′-(4-methyl-2,5-dioxo-1-(2-((((S)-5-oxopyrrolidin-2-yl)methyl)amino)ethyl)-2,3,4,5-tetrahydro-1H-benzo[e][1,4]diazepin-7-yl)-[1,1′-biphenyl]-3-yl)methoxy)-2-(((((S)-5-oxopyrrolidin-2-yl)methyl)amino)methyl)phenoxy)methyl)nicotinonitrile], the IC50 worked out at 4.2 nM.

The molecule `Cc1c(/C=C(\F)c2ccc(CNCCO)cn2)cccc1-c1cccc(-c2ccn3c(=O)c(CNCCO)cnc3c2)c1C` [Example 21, (Z)-8-(3′-(2-Fluoro-2-(5-(((2-hydroxyethyl)amino)methyl)pyridin-2-yl)vinyl)-2,2′-dimethyl-[1,1′-biphenyl]-3-yl)-3-(((2-hydroxyethyl)amino)methyl)-4H-pyrido[1,2-a]pyrimidin-4-one] yielded a concentration for half-maximal inhibition (IC50) of 4.8 nM.

As for `Cc1c(COc2cc(OCc3cncc(C#N)c3)c(CNCCO)cc2Cl)cccc1-c1cccc(-c2ccc3c(c2)N(C)C(=O)CCC3NCCO)c1C` (stereo not drawn) [Example 22, 5-((4-Chloro-5-((3′-(5-((2-hydroxyethyl)amino)-1-methyl-2-oxo-2,3,4,5-tetrahydro-1H-benzo[b]azepin-8-yl)-2,2′-dimethyl-[1,1′-biphenyl]-3-yl)methoxy)-2-(((2-hydroxyethyl)amino)methyl)phenoxy)methyl)nicotinonitrile], the IC50 came out at 6 nM.

As for `Cc1c(COc2cc(OCc3cncc(C#N)c3)c(CNCCO)cc2Cl)cccc1-c1cccc(-n2ccc(CNCCO)cc2=O)c1C` [Example 23, 5-((4-Chloro-2-(((2-hydroxyethyl)amino)methyl)-5-((3′-(4-(((2-hydroxyethyl)amino)methyl)-2-oxopyridin-1(2H)-yl)-2,2′-dimethyl-[1,1′-biphenyl]-3-yl)methoxy)phenoxy)methyl)nicotinonitrile], the IC50 is 33 nM.

`Cc1c(COc2cc(OCc3cncc(C#N)c3)c(CNC[C@@H]3CCC(=O)N3)cc2Cl)cccc1-c1cccc(-c2ccn3c(=O)c(CNC[C@@H]4CCC(=O)N4)ccc3c2)c1C` [Example 24, 5-((4-Chloro-5-((2,2′-dimethyl-3′-(4-oxo-3-(((((S)-5-oxopyrrolidin-2-yl)methyl)amino)methyl)-4H-quinolizin-8-yl)-[1,1′-biphenyl]-3-yl)methoxy)-2-(((((S)-5-oxopyrrolidin-2-yl)methyl)amino)methyl)phenoxy)methyl)nicotinonitrile] gave an IC50 of 0.5 nM.

The molecule `Cc1c(COc2cc(OCc3cncc(C#N)c3)c(CNCCO)cc2Cl)cccc1-c1cccc(-c2ccn3c(=O)c(CNCCO)cnc3c2)c1C#N` [Example 25, 5-((4-Chloro-5-((2′-cyano-3′-(3-(((2-hydroxyethyl)amino)methyl)-4-oxo-4H-pyrido[1,2-a]pyrimidin-8-yl)-2-methyl-[1,1′-biphenyl]-3-yl)methoxy)-2-(((2-hydroxyethyl)amino)methyl)phenoxy)methyl)nicotinonitrile] showed an IC50 of 0.3 nM.

Take `Cc1c(COc2cc(OCc3cncc(C#N)c3)c(CN3CC(CO)C3)cc2Cl)cccc1-c1cccc(-c2ccc3c(c2)C(=O)N(C)CC(=O)N3CCN2CC(CO)C2)c1C` [Example 26, 5-((4-Chloro-5-((3′-(1-(2-(3-(hydroxymethyl)azetidin-1-yl)ethyl)-4-methyl-2,5-dioxo-2,3,4,5-tetrahydro-1H-benzo[e][1,4]diazepin-7-yl)-2,2′-dimethyl-[1,1′-biphenyl]-3-yl)methoxy)-2-((3-(hydroxymethyl)azetidin-1-yl)methyl)phenoxy)methyl)nicotinonitrile]: the IC50 was 0.7 nM.

`Cc1c(OCc2cc(OCc3cncc(C#N)c3)c(CNC[C@@H]3CCC(=O)N3)cc2Cl)cccc1-c1cccc(-c2ccc3c(c2)C(=O)N(C)CC(=O)N3CCNC[C@@H]2CCC(=O)N2)c1C` [Example 27, 5-((4-Chloro-5-(((2,2′-dimethyl-3′-(4-methyl-2,5-dioxo-1-(2-((((S)-5-oxopyrrolidin-2-yl)methyl)amino)ethyl)-2,3,4,5-tetrahydro-1H-benzo[e][1,4]diazepin-7-yl)-[1,1′-biphenyl]-3-yl)oxy)methyl)-2-(((((S)-5-oxopyrrolidin-2-yl)methyl)amino)methyl)phenoxy)methyl)nicotinonitrile] gave an IC50 of 9.9 nM. Against the preceding molecule, the IC50 is about 14-fold higher.

Regarding `Cc1c(COc2cc(OCc3cncc(C#N)c3)c(CNC[C@H]3CCC(=O)N3)cc2Cl)cccc1-c1cccc(-c2ccn3c(=O)c(CNC[C@H]4CCC(=O)N4)ccc3c2)c1C` [Example 28, 5-((4-Chloro-5-((2,2′-dimethyl-3′-(4-oxo-3-(((((R)-5-oxopyrrolidin-2-yl)methyl)amino)methyl)-4H-quinolizin-8-yl)-[1,1′-biphenyl]-3-yl)methoxy)-2-(((((R)-5-oxopyrrolidin-2-yl)methyl)amino)methyl)phenoxy)methyl)nicotinonitrile], inhibition was half-maximal at 0.7 nM (IC50). Against the preceding molecule, the IC50 is about 14-fold lower.

Turning to `Cc1c(COc2cc(OCc3cncc(C#N)c3)c(CN3CC(C(=O)O)C3)cc2Cl)cccc1-c1cccc(-c2ccn3c(=O)c(CN4CC(C(=O)O)C4)ccc3c2)c1C` [Example 29, 1-((8-(3′-((4-((3-Carboxyazetidin-1-yl)methyl)-2-chloro-5-((5-cyanopyridin-3-yl)methoxy)phenoxy)methyl)-2,2′-dimethyl-[1,1′-biphenyl]-3-yl)-4-oxo-4H-quinolizin-3-yl)methyl)azetidine-3-carboxylic acid], the IC50 was 0.9 nM.

These data come from patent US20230143612A1 (Arbutus Biopharma Corporation, priority 2020, published 2023).
